# Assays:
# aldose reductase = target: T1, aldose reductase (Homo sapiens, UniProt P15121); test: aldose reductase activity, partially purified preparation from human placenta; type: biochemical; conditions: 10^-6 M
# T1 construct: partially purified aldose reductase preparation from human placenta; from tissue; host or cells: human placenta
# Experimental: The effect of the thiazolidine derivative (I) on aldose reductase activity was assayed after the method described in S. Haymen et al., Journal of Biological Chemistry, Vol. 240, 877 (1965) and Jin H. Kinoshita et al., Metabolism, Vol. 28, Nr. 4, Suppl 1, 462 (1979), etc. The enzyme used in the assay was a partially purified aldose reductase preparation from human placenta. The results for the respective compounds were expressed as % inhibition at the concentration of 10^-6 mole and are shown in Table 2.
# rat lens = test: swelling inhibitory effect in rat lens culture assay; type: cell-based; conditions: 10^-6 M
# Experimental: The swelling inhibitory effect of each compound in a rat lens culture assay was evaluated by the method described in H. Obazawa et al., Invest. Ophthalmol Vol. 13, Nr. 3, 204 (1974).
# The result for each compound was expressed as the % inhibition of swelling into the lens at the concentration of 10^-6 mole and are shown in Table 3.
# [1] = single-dose lethality test in mice; type: in vivo; conditions: 2500 mg/kg once; groups of 5 mice
# Experimental: In a test in mice (each group consisting of 5 mice), when the compounds (I), for example, 5-(3-ethoxy-4-pentyloxyphenyl)thiazolidine-2,4-dione and 5-(3-ethoxy-4-isopentyloxyphenyl)thiazolidine-2,4-dione were administered at a dose of 2500 mg/kg once, no mouse died.
SMILES,inhibition at 1 µM (aldose reductase),inhibition at 1 µM (rat lens),death of mice [1]
O=C1NC(=O)C(c2ccc3c(c2)OCO3)S1 (stereo not drawn) [Example 10 - No. 7],47.4%,–,–
COc1ccc(C2SC(=O)NC2=O)cc1OC (stereo not drawn) [Example 10 - No. 1],57.1%,30.3%,–
CCCOc1ccc(C2SC(=O)NC2=O)cc1OCCC (stereo not drawn) [Example 10 - No. 10],53.5%,–,–
"Cc1ccc(C2SC(=O)NC2=O)cc1C (stereo not drawn) [Example 5, 5-(3,4-dimethylphenyl)thiazolidine-2,4-dione]",35.8%,–,–
CCOc1ccc(C2SC(=O)NC2=O)cc1OCC (stereo not drawn) [Example 10 - No. 2],57%,37%,–
CCOc1cc(C2SC(=O)NC2=O)ccc1OCC(C)(C)C (stereo not drawn) [Example 10 - No. 14],28%,57.2%,–
CCCCCCOc1ccc(C2SC(=O)NC2=O)cc1OC (stereo not drawn) [Example 10 - No. 18],32.2%,–,–
CCCCCOc1ccc(C2SC(=O)NC2=O)cc1OC (stereo not drawn) [Example 10 - No. 17],40.6%,–,–
"CCCCCOc1ccc(C2SC(=O)NC2=O)cc1OCC (stereo not drawn) [Example 4, 5-(3-ethoxy-4-pentyloxyphenyl)-thiazolidine-2,4-dione]",34.6%,44.6%,no mouse died
CCCCCCOc1ccc(C2SC(=O)NC2=O)cc1OCC (stereo not drawn) [Example 10 - No. 12],37.7%,33%,–
"CCOc1cc(C2SC(=O)NC2=O)ccc1OCCC(C)C (stereo not drawn) [5-(3-ethoxy-4-isopentyloxyphenyl)thiazolidine-2,4-dione]",–,–,no mouse died
CCOc1cc(C2SC(=O)NC2=O)ccc1OCCCC(C)C (stereo not drawn) [Example 10 - No. 15],60.6%,–,–
CCOc1cc(C2SC(=O)NC2=O)ccc1O (stereo not drawn) [Example 10 - No. 3],51.6%,–,–
CCCCOc1ccc(C2SC(=O)NC2=O)cc1OCCCC (stereo not drawn) [Example 10 - No. 8],51.7%,–,–
CC(=O)Oc1ccc(C2SC(=O)NC2=O)cc1OC(C)=O (stereo not drawn) [Example 10 - No. 5],76.9%,–,–
O=C1NC(=O)C(c2ccc(O)c(O)c2)S1 (stereo not drawn) [Example 10 - No. 6],41.8%,–,–
CCOc1cc(C2SC(=O)NC2=O)ccc1OCCC(C)C (stereo not drawn) [Example 10 - No. 13],34%,25.3%,–
COc1cc(C2SC(=O)NC2=O)ccc1OCCCC(C)C (stereo not drawn) [Example 10 - No. 19],68.1%,–,–
CCCCCOc1cc(C2SC(=O)NC2=O)ccc1OC (stereo not drawn) [Example 10 - No. 20],30%,–,–
CCCCOc1ccc(C2SC(=O)NC2=O)cc1OCC (stereo not drawn) [Example 10 - No. 9],55.2%,–,–
CCOc1cc(C2SC(=O)NC2=O)ccc1OC(C)=O (stereo not drawn) [Example 10 - No. 4],59%,23.7%,–
CCCCOc1ccc(C2SC(=O)NC2=O)cc1OC (stereo not drawn) [Example 10 - No. 16],38.7%,–,–

# — US4387101A, “Thiazolidine derivatives and their use” (Takeda Chemical Industries, Ltd., priority 1980, dated 1983)
